{
  "source": "paper PMC7680126",
  "about": "“Structural asymmetry governs the assembly and GTPase activity of McrBC restriction complexes” (Nature Communications, 2020)",
  "key": {"TgMcrB (full-length)": {"molecular_target": "T1, TgMcrB (full-length) (Thermococcus gammatolerans, UniProt C5A3Z3)", "T1 construct": "gene TGAM_0453; full-length, residues 1-613; 6xHis tag cut by HRV 3C (Gly-Pro left); E. coli BL21(DE3); hexamer", "assay": "malachite green phosphate release", "type": "biochemical", "settings": "1 mM GTP, 65 °C, pH 8.0, 150 mM KCl, 5 mM MgCl2; no McrC"}, "TgMcrBC complex": {"molecular_target": "T2, TgMcrBC complex (Thermococcus gammatolerans, UniProt C5A3Z3)", "T2 construct": "gene TGAM_0453; full-length McrB (1-613) and McrC (1-458); tags cut by HRV 3C (Gly-Pro left); E. coli; with McrC, endonuclease subunit of McrBC restriction complex (5-methylcytosine restriction system component McrC)", "T2 sequence (C5A3Z3 1-613)": "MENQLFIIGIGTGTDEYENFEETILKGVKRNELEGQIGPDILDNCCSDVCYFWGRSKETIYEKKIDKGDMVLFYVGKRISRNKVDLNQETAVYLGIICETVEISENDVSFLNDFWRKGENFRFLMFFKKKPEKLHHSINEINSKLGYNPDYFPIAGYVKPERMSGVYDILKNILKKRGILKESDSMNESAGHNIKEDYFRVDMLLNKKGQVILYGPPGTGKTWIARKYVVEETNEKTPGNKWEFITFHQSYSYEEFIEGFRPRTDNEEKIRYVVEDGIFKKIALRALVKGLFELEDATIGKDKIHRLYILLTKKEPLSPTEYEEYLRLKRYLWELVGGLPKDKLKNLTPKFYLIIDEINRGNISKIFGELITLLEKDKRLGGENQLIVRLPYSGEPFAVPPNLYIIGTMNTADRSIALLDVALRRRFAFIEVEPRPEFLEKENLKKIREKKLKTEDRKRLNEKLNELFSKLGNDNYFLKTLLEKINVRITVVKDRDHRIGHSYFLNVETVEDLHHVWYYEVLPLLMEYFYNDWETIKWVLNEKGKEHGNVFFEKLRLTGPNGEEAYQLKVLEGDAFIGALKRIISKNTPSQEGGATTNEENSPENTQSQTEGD", "T2 sequence (C5A3Z2 1-458 partner)": "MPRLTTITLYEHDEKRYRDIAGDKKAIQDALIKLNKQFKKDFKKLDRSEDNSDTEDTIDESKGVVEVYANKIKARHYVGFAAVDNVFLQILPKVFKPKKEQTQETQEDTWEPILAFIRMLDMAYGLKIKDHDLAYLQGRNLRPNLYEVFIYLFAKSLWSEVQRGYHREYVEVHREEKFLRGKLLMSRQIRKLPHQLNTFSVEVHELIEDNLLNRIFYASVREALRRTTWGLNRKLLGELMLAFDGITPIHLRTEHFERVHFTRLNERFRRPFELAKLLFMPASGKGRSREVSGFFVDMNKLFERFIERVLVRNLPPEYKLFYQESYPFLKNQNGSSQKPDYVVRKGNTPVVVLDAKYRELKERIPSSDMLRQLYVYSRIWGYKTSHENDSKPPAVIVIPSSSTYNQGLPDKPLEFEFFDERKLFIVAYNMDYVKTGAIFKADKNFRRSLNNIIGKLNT", "assay": "malachite green phosphate release", "type": "biochemical", "settings": "1 mM GTP, 0.1 μM TgMcrC, 65 °C, pH 8.0, 150 mM KCl, 5 mM MgCl2"}},
  "data": [
    {"smiles": "Nc1nc2c(ncn2[C@@H]2O[C@H](COP(=O)(O)OP(=O)(O)OP(=O)(O)O)[C@@H](O)[C@H]2O)c(=O)[nH]1", "note": "[GTP]", "values": [
      {"measurement": "basal GTPase activity", "setting": "TgMcrB (full-length)", "value": "Alanine substitutions at Asn410 and Asp413 in full-length TgMcrB abolish both basal and McrC-stimulated GTPase activity"},
      {"measurement": "McrC-stimulated GTPase activity", "setting": "TgMcrBC complex", "value": "Purified TgMcrC similarly stimulates TgMcrB’s basal GTPase activity"}
    ]}
  ]
}
